Patent publication US4990510A, “Substituted indoloquinoxalines” (Leif Lundblad, priority 1986, dated 1991)
Values after ≈ are worked out from the molar mass of the structure shown. Where a name gives a salt, the structure may show the parent alone.

Legend:
[1] = tested on: Raji cells; experiment: Growth/killing of Burkitt lymphoma Raji-cells; assay type: cell-based; details: FIGS. 1 and 3
Procedure: (§1) Burkitt lymphoma cells were obtained from professor Georg Klein, Karolinska Institutet. HeHrl-cells contain Epstein-Barr virus antigen on the surface of the cells while Raji cells contain the same antigen in the nucleus. The cells were grown in RPMI 1640 medium in the presence of 15% of fetal calf-serum, 2mM glutamine, 200 mg/1 penicillin and 200 mg/1 of streptomycine. L 1210 cells (mouse leukemia) were obtained from Dr. Miklos Degre, Rikshospitalet, Oslo. These cells were grown in RPMI 1640 medium with 10% horse serum.

[2] = tested on: giant tumor cells (strain T4); experiment: Growth inhibition of giant tumor cells (strain T4); assay type: cell-based; details: after 6 days test with 1 mg/1
Procedure: (§2) Also osteogenic sarcoma cells and giant tumor cells (strain T4) were inhibited to 90% in their growth after 6 days test with 1 mg/1.

[3] = tested on: herpes simplex virus type 1; experiment: Virus inactivation after incubation with B196, infectivity by intracerebral injection in mice (FIG. 5); assay type: in vivo, herpes simplex virus type 1 in mice; details: 75 and 150 μg/ml, 4° C.
Procedure: In the experiments shown in FIG. 5 two concentrations of B-196 (75 and 150 μg/ml) were incubated for different times at 4° C. with herpes simplex virus type 1 and the infectivity of the mixtures were determined by intracerebral injection in mice Control virus was incubated at 4° C. for the same period of time. No survivors were registered in these groups.

[4] = tested on: osteogenic sarcoma cells; experiment: Growth inhibition of osteogenic sarcoma cells; assay type: cell-based; details: after 6 days test with 1 mg/1
Procedure: as §2

[5] = tested on: HeHrl-cells; experiment: Growth/killing of Burkitt lymphoma HeHrl-cells (HeHr); assay type: cell-based; details: FIGS. 1 and 2
Procedure: as §1

[6] = tested on: herpes simplex virus type 1; experiment: Virus mixed with B196, with or without dialysis, injected intracerebrally into mice (FIG. 4); assay type: in vivo, herpes simplex virus type 1 in mice
Procedure: (§3) The virus strains were obtained from the National Bacteriological Laboratory, Stockholm. Herpes simplex type 1 and 2 were passaged intracerebrally in mice. For mouse experiments male mice 2-3 weeks old were used. Intracerebral infection was carried out by introducing the syringe 3 mm above the eye to a depth of approximately 3 mm. 0.03 ml virus suspension was injected above one eye and the substance above the other. Control groups obtained on one hand injection with physiological saline and on the other hand virus suspension.
In the experiments shown in FIG. 4 various concentrations of B-196 were mixed with herpes simplex virus type 1 and injected intracerebrally into mice immediately at or after dialysis, at 4° C. over night. No survivors were recorded in control groups.

[7] = tested on: herpes virus; details: literature; cited from earlier work
[8] = tested on: ascites lymphoma cells; experiment: Ascites lymphoma survival experiments in mice; assay type: in vivo
Procedure: (§4) Experiments with mice have also been carried out. LD50 intraperitoneally is of the order 1000 mg/kg and about 100 mg/kg intravenously. […] were inocculated with 5 millions mouse ascites tumor cells intraperitoneally. 80 mg/kg of B219 were given daily for ten days. 2 mice died 22 days after treatment, 8 mice survived the whole test period (3 months). All controls were then dead. In two experiments with ascites lymphoma cells in mice a survival time of 50.9 days was obtained in the first experiment and 45.6 days in the second. The survival time for the controls , was 16.2 and 16.1 days respectively.

[9] = tested on: mouse ascites tumor cells; experiment: Mouse ascites tumor survival experiment; assay type: in vivo; details: 80 mg/kg daily for ten days
Procedure: as §4

[10] = tested on: Herpes simplex type 1 and 2; experiment: Herpes simplex virus tissue culture test (human amnion AV3-cells), cytopathogenic effect; assay type: cell-based, Herpes simplex virus type 1 and 2; details: for EC50: Human alphaherpesvirus 1, Table 1, read-out: Herpes Simplex tissue culture OL50 (concentration for 50% survival); for Herpes Simplex tissue culture OL50 (concentration for 50% survival): Table 1
Procedure: as §3
Tissue culture experiments took place with human amnion AV3-cells. The cells were grown in glass-tubes (12×100 mm) in Eagles medium containing Earles salt solution and 10% of calf-serum. Tubes with a full-grown homogenous layer of cells were infected with virus (0.15 ml) and the virus was allowed to adsorb to cells for 1 hour at 37° C. The tubes were treated with substance dissolved in medium 24 hours and 0 hour before infection. Medium containing test-substance was changed every second day throughout the experiment. In each test a series of concentrations of the test-substance was investigated simultaneously so that about 50% reduction in cytopatogenic effect could be established (ED50).

[11] = Acute toxicity (LD50) in mice; assay type: in vivo; details: for LD50: mouse, in vivo
Procedure: as §4

CN(C)CCn1c2ccc(Br)cc2c2nc3ccccc3nc21 [Example B196, 9-bromo-6(N,N-dimethylaminoethyl)-6H-indolo(2,3-b)-quinoxaline . HCl]
sensitivity / killing of Raji-cells [1]: rapidly killed | inhibition of growth, giant tumor cells (strain T4) [2]: 90% | inactivation of HSV1-virus vs. time [3]: virus slowly is inactivated | inhibition of growth, osteogenic sarcoma cells [4]: 90% | sensitivity / killing of HeHrl-cells [5]: rapidly killed | survival rate ([6]; virus mixed with B196 before injection, increases from 0): 100% | effect on survival rate after dialysis ([6]; virus-substance mixture subjected to dialysis before injection): almost equally pronounced

O=C(O)P(=O)(O)O [phosphonoformic acid]
activity against herpes virus [7]: active against herpes virus

Cc1cc2nc3c4cc(Br)ccc4n(CCN(C)C)c3nc2cc1C [Example B219]
survival time, first experiment ([8]; first experiment, controls 16.2 days): 50.9 days | survival time, second experiment ([8]; second experiment, controls 16.1 days): 45.6 days | mice died 22 days after treatment ([9]; 5 millions ascites tumor cells intraperitoneally): 2 mice | mice survived the whole test period ([9]; 3 months, all controls dead): 8 mice

O=C(O)CP(=O)(O)O [phosphonoacetic acid]
activity against herpes virus [7]: active against herpes virus

Cc1ccc2c(c1)c1nc3ccccc3nc1n2CCN(C)C [Example 4, 9-methyl-6-(N,N-dimethylaminoethyl)-6H-indolo(2,3-b)quinoxaline]
EC50 [10]: 1 µg/mL (≈ 3.29 µM) | LD50 ([11]; Table 1): > 200 mg/kg

Cc1ccc2c(c1)c1nc3ccccc3nc1n2CCN(C)C [Example 8]
Herpes Simplex tissue culture OL50 (concentration for 50% survival) [10]: 1 µg/mL | LD50 mouse ([11]; Table 1): > 200 mg/kg

CN(C)CCn1c2ccc(Cl)cc2c2nc3ccccc3nc21.Cl [Example 5, 9-chloro-6-(N,N-dimethylaminoethyl)-6H-indolo(2,3-b)-quinoxaline-HCl]
EC50 [10]: 1 µg/mL | LD50 mouse ([11]; Table 1, listed as 9): > 250 mg/kg | LD50 ([11]; Table 1): 180 mg/kg

Cc1ccc2c(c1)c1nc3ccccc3nc1n2CCN(C)C [Example 10, 9-methyl-6-(N,N-dimethylaminoethyl)-6H-indolo(2,3-b)-quinoxaline-ICl]
Herpes Simplex tissue culture OL50 (concentration for 50% survival) [10]: 0.5 µg/mL | LD50 mouse ([11]; Table 1): 220 mg/kg

Cc1cc2nc3c4cc(Br)ccc4n(CCN(C)C)c3nc2cc1C [Example 6, 2,3-dimethyl-9-bromo-6-(N,N-dimethylaminoethyl)-6H-indolo-(2,3-b)quinoxalin]
EC50 [10]: < 0.5 µg/mL | LD50 ([11]; Table 1): > 250 mg/kg
